Source: ChEMBL document CHEMBL1795251, “Structure-based design of thienobenzoxepin inhibitors of PI3-kinase” (Bioorg Med Chem Lett, 2011)
Activity calls are given as the source filed them. The calls are words filed in the database; no cut-off is given here.

Legend:
[1] = Plasma clearance in rat at 100 mg/kg; assay type: ADME, organism-based; set-up: dose 100 mg/kg
[2] = in vivo; settings: rat, plasma, iv, 1 mg/kg
[3] = tested on: MCF7; assay: Antiproliferative activity against human MCF7 cells; assay type: functional, cell-based
[4] = Plasma clearance in mouse at 100 mg/kg; assay type: ADME, organism-based; set-up: dose 100 mg/kg
[5] = tested on: PC-3; assay: Antiproliferative activity against human PC3 cells; assay type: functional, cell-based
[6] = target: Serine/threonine-protein kinase mTOR (Homo sapiens, UniProt P42345); assay: Inhibition of mTOR
[7] = Oral bioavailability in mouse at 100 mg/kg; assay type: ADME, organism-based; settings: in vivo
[8] = target: DNA-dependent protein kinase catalytic subunit (Homo sapiens, UniProt P78527); assay: Inhibition of DNA-PK
[9] = tested on: Mus musculus; assay: Inhibition of PI3K pathway in nude mouse xenografted with HER2 expressing MCF7 assessed as reduction in phosphorylated PRAS40 levels at 50 mg/kg, po administered as single dose after 6 hrs relative to control; assay type: functional, organism-based; set-up: dose 50 mg/kg
[10] = in vivo; settings: mouse, plasma, iv, 1 mg/kg
[11] = AUC in rat at 100 mg/kg; assay type: ADME, organism-based; set-up: dose 100 mg/kg; settings: plasma
[12] = in vivo; settings: nude, mouse, tumor, po, 50 mg/kg
[13] = Plasma protein binding in cynomolgus monkey; assay type: ADME, cell-free, Macaca fascicularis; settings: read-out: PPB
[14] = Plasma protein binding in dog; assay type: ADME, cell-free, Canis lupus familiaris; settings: read-out: PPB (converted)
[15] = AUC in mouse at 100 mg/kg; assay type: ADME, organism-based; set-up: dose 100 mg/kg; settings: plasma
[16] = in vivo; settings: nude, mouse, tumor, po, 50 mg/kg; remark: listed apart in the source
[17] = Plasma protein binding in human; assay type: ADME, cell-free; settings: read-out: PPB (converted)
[18] = tested on: Mus musculus; assay: Inhibition of PI3K pathway in nude mouse xenografted with HER2 expressing MCF7 assessed as reduction in phosphorylated S6RP levels at 50 mg/kg, po administered as single dose after 6 hrs relative to control; assay type: functional, organism-based; set-up: dose 50 mg/kg
[19] = Plasma protein binding in rat; assay type: ADME, cell-free; settings: read-out: PPB (converted)
[20] = tested on: Mus musculus; assay: Inhibition of PI3K pathway in nude mouse xenografted with HER2 expressing MCF7 assessed as reduction in phosphorylated AKT levels at 50 mg/kg, po administered as single dose after 6 hrs relative to control; assay type: functional, organism-based; set-up: dose 50 mg/kg
[21] = in vivo; settings: nude, mouse, plasma, po, 50 mg/kg
[22] = Oral bioavailability in rat at 100 mg/kg; assay type: ADME, organism-based; settings: in vivo
[23] = in vivo; settings: nude, mouse, plasma, po, 50 mg/kg; remark: listed apart in the source
[24] = Plasma clearance in dog at 2 mg/kg; assay type: ADME, organism-based, Canis lupus familiaris; set-up: dose 2 mg/kg
[25] = Plasma clearance in cynomolgus monkey; assay type: ADME, organism-based, Macaca fascicularis
[26] = Oral bioavailability in dog at 2 mg/kg; assay type: ADME, organism-based, Canis lupus familiaris; settings: in vivo
[27] = Plasma protein binding in mouse; assay type: ADME, cell-free; settings: read-out: PPB (converted)
[28] = AUC in dog at 2 mg/kg; assay type: ADME, organism-based, Canis lupus familiaris; set-up: dose 2 mg/kg; settings: plasma
[29] = target: Phosphatidylinositol 4,5-bisphosphate 3-kinase catalytic subunit alpha isoform (Homo sapiens, UniProt P42336)
[30] = tested on: Hepatocyte; assay: Metabolic stability in cryopreserved human hepatocytes assessed as N-(2-chlorophenyl)-N-methyl-8-(1H-pyrazol-4-yl)-4,5-dihydrobenzo[b]thieno[2,3-d]oxepine-2-carboxamide formation; assay type: ADME, cell-based

Sequence of Phosphatidylinositol 4,5-bisphosphate 3-kinase catalytic subunit alpha isoform (P42336 whole entry, canonical isoform): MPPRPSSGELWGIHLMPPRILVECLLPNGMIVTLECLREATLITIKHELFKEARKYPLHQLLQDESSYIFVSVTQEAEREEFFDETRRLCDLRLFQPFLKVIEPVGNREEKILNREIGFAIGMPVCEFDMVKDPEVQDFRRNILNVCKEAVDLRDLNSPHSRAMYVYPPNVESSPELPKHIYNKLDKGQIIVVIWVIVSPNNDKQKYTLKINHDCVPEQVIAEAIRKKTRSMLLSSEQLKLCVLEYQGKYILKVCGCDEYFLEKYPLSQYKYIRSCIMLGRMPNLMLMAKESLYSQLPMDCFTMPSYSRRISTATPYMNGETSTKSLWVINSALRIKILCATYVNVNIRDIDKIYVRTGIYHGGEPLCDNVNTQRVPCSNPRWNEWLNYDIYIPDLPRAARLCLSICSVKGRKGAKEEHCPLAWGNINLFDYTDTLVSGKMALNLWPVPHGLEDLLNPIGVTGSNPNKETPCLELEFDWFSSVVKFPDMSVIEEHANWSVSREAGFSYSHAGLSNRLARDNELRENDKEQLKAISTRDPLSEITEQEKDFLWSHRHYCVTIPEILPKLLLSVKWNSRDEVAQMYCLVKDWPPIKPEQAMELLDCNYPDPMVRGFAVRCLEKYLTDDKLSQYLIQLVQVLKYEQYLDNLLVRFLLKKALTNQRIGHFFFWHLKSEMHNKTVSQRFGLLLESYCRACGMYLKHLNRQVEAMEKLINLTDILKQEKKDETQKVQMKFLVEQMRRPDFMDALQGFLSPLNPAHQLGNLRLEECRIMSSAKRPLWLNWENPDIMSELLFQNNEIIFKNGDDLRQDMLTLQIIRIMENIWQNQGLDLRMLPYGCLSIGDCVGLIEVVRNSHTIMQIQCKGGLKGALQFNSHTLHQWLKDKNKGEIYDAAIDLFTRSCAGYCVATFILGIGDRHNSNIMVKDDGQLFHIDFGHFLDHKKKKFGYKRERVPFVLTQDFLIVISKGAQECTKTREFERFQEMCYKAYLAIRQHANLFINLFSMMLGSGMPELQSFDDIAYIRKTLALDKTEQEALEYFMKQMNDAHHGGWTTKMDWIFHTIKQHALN
Sequence of DNA-dependent protein kinase catalytic subunit (P78527 whole entry): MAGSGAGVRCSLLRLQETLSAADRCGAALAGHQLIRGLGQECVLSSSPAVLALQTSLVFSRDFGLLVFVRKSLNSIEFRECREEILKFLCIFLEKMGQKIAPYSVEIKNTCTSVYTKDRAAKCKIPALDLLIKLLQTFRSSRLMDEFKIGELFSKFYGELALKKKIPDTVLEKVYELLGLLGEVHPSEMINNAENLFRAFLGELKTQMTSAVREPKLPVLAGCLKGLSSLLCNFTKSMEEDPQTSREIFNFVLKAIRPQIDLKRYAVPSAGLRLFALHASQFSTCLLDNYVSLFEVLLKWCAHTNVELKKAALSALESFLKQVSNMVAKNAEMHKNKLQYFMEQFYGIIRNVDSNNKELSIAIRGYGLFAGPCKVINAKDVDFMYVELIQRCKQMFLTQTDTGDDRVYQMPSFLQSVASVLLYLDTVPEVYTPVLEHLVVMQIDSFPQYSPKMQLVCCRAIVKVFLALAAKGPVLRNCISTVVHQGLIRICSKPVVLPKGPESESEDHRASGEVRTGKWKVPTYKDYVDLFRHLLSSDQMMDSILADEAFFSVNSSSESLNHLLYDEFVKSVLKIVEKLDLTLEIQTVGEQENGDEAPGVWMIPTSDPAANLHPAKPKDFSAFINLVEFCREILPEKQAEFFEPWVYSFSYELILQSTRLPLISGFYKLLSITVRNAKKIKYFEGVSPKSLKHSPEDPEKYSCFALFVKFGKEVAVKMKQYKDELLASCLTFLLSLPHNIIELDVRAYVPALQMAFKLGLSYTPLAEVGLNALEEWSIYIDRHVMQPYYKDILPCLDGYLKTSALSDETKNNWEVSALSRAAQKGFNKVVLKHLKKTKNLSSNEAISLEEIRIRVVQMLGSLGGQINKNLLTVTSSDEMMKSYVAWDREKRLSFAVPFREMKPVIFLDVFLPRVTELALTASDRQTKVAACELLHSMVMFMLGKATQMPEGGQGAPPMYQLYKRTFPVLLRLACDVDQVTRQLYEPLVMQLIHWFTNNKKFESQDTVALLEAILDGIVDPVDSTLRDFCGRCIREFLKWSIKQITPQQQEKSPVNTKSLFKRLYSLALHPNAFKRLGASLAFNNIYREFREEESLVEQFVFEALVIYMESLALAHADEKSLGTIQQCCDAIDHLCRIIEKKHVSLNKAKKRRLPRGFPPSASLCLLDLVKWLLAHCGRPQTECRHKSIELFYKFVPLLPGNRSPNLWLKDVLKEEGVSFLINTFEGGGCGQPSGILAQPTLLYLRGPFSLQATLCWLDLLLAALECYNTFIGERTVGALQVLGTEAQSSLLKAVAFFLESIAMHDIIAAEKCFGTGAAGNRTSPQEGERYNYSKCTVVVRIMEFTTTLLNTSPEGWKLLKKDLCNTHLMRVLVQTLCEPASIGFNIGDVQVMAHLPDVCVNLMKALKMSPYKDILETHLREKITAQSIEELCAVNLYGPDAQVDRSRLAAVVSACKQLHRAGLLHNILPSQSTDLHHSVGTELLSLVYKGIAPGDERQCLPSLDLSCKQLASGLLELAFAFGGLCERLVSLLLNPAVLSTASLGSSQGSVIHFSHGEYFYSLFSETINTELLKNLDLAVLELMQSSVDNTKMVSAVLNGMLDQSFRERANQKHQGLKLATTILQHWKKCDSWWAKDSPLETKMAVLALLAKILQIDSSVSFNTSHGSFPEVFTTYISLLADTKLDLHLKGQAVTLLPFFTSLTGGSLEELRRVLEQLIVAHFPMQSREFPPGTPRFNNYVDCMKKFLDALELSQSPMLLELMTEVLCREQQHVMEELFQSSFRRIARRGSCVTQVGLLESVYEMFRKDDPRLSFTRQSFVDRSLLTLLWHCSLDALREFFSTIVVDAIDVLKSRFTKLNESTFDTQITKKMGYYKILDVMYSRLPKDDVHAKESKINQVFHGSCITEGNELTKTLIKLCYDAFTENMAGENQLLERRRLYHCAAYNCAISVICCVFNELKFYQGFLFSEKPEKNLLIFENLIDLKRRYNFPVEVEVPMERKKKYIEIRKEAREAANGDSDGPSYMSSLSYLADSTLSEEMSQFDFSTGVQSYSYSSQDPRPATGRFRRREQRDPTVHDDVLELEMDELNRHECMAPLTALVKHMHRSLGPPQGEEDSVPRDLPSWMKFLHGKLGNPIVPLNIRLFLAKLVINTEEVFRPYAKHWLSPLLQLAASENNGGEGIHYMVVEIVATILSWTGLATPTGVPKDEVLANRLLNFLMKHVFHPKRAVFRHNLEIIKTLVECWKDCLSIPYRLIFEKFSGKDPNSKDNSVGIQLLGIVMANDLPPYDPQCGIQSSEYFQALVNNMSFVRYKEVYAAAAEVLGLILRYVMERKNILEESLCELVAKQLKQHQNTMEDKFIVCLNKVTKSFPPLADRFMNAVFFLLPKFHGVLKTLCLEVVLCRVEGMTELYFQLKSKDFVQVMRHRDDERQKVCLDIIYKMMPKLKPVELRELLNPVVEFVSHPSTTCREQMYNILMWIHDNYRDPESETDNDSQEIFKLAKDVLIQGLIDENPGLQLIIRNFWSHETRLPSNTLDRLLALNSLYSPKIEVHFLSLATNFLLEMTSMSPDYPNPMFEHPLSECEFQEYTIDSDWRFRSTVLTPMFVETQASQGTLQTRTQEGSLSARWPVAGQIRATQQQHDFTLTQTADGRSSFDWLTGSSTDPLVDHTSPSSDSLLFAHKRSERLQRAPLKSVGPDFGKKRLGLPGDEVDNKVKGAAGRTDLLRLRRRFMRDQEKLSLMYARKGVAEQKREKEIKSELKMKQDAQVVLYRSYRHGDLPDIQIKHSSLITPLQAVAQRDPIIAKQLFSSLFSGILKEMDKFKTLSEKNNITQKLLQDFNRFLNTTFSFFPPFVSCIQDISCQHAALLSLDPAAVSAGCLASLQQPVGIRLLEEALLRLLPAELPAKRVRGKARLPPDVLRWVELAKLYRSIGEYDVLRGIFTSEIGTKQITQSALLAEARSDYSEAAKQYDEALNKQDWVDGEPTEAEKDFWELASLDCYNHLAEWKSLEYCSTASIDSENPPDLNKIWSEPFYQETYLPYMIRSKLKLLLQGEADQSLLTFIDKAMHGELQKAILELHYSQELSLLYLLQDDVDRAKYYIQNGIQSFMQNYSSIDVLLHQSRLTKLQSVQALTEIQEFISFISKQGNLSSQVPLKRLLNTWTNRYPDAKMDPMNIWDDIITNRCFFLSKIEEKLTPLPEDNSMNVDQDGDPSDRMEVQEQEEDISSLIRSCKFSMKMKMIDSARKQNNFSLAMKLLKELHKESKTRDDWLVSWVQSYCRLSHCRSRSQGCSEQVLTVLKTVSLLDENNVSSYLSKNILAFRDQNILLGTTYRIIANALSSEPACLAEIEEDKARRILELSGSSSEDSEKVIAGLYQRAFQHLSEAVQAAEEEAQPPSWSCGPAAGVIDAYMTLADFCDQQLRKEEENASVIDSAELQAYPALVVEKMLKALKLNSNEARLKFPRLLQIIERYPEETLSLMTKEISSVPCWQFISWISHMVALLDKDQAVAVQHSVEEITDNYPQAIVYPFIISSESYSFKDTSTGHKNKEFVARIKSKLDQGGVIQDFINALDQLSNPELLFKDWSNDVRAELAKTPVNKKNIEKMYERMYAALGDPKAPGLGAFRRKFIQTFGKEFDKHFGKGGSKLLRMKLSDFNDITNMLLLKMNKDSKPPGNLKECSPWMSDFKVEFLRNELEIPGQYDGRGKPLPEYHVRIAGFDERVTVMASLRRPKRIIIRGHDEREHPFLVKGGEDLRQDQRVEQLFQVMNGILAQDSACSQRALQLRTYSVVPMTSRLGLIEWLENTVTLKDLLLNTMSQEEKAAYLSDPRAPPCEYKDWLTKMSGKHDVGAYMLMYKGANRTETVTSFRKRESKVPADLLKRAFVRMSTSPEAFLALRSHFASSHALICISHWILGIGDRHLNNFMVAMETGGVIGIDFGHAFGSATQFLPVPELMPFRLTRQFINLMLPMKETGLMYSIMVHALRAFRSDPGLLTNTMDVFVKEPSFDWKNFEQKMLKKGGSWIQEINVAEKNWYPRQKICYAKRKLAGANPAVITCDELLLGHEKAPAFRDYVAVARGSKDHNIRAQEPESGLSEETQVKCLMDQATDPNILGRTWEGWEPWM

## CNC(=O)c1ccc2c(c1)OCCc1cc(C(=O)N(C)c3ccc(C(=O)N(C)C)cc3Cl)sc1-2
[1]
  clearance: 36 mL/min/kg
[2]
  clearance: 36 mL/min/kg
[3]
  EC50: 256 nM
[4]
  clearance: 15 mL/min/kg
[5]
  EC50: 550 nM
[6]
  IC50: 530 nM
[7]
  bioavailability: 28%
[8]
  IC50: 6 nM
[9]
  inhibition: Active
[10]
  clearance: 15 mL/min/kg
[11]
  AUC: 39 µM·h
[12]
  concentration at 1 h: 1.08 µM
[13]
  fraction unbound: 0.09
[14]
  fraction unbound: 0.07
[15]
  AUC: 330 µM·h
[16]
  concentration at 6 h: 2.24 µM
[17]
  fraction unbound: 0.03
[18]
  inhibition: Active
[19]
  fraction unbound: 0.03
[20]
  inhibition: Active
[21]
  concentration at 1 h: 7.38 µM
[22]
  bioavailability: 50%
[23]
  concentration at 6 h: 11.1 µM
[24]
  clearance: 5 mL/min/kg
[25]
  clearance: 10 mL/min/kg
[26]
  bioavailability: 120%
[27]
  fraction unbound: 0.02
[28]
  AUC: 17 µM·h

## CN(C(=O)c1cc2c(s1)-c1ccc(C(=O)N3CCOCC3)cc1OCC2)c1ccccc1Cl
[29]
  Ki: 31 nM

## CN(C(=O)c1cc2c(s1)-c1ccccc1OC2)c1ccc(F)cc1
[29]
  IC50: 1000 nM

## CN(C(=O)c1cc2c(s1)-c1ccccc1OC2)c1cccc(F)c1
[29]
  IC50: 1000 nM

## CN(C(=O)c1cc2c(s1)-c1ccccc1OCC2)c1ccccc1Cl
[2]
  clearance: 60 mL/min/kg

## COC(=O)Nc1ccc2c(c1)OCCc1cc(C(=O)N(C)c3ccccc3Cl)sc1-2
[2]
  clearance: 44 mL/min/kg
[29]
  Ki: 1.5 nM

## CN(C(=O)c1cc2c(s1)-c1ccccc1OCC2)c1ccncc1Cl
[2]
  clearance: 23 mL/min/kg
[29]
  Ki: 473 nM

## CN(C(=O)c1cc2c(s1)-c1ccc(-c3cn[nH]c3)cc1OCC2)c1ccncc1Cl
[29]
  Ki: 65 nM

## CN(C(=O)c1cc2c(s1)-c1ccccc1OCCC2)c1ccccc1Cl
[29]
  IC50: > 10000 nM

## CC(C)N(C)C(=O)c1cc2c(s1)-c1ccccc1OC2
[29]
  IC50: 5200 nM

## CNC(=O)c1ccc2c(c1)OCCc1cc(C(=O)N(C)c3cc(C(=O)N(C)C)ccc3Cl)sc1-2
[2]
  clearance: 66 mL/min/kg
[10]
  clearance: 55 mL/min/kg

## CN(C(=O)c1cc2c(s1)-c1ccc(C(N)=O)cc1OCC2)c1ccccc1Cl
[2]
  clearance: 89 mL/min/kg
[29]
  Ki: 1.2 nM

## CNC(=O)c1ccc2c(c1)OCCc1cc(C(=O)N(C)c3ccccc3Cl)sc1-2
[30]
  Stability: 5 µM

## CN(C(=O)c1cc2c(s1)-c1ccccc1OC2)c1ccccn1
[29]
  IC50: > 10000 nM

## Cc1ccccc1N(C)C(=O)c1cc2c(s1)-c1ccccc1OC2
[29]
  IC50: 699 nM

## CNC(=O)c1ccc2c(c1)OCCc1cc(C(=O)N(C)c3ccc(F)cc3Cl)sc1-2
[2]
  clearance: 153 mL/min/kg
[10]
  clearance: 182 mL/min/kg

## COc1ccccc1N(C)C(=O)c1cc2c(s1)-c1ccccc1OC2
[29]
  IC50: 673 nM

## CC(C)CN(C)C(=O)c1cc2c(s1)-c1ccccc1OC2
[29]
  IC50: 17000 nM

## CNC(=O)c1ccc(N(C)C(=O)c2cc3c(s2)-c2ccc(C(=O)NC)cc2OCC3)c(Cl)c1
[2]
  clearance: 28 mL/min/kg
[10]
  clearance: 24 mL/min/kg
[29]
  Ki: 2.5 nM

## CN(C(=O)c1cc2c(s1)-c1ccc(-c3cn[nH]c3)cc1OCC2)c1ccccc1Cl
[29]
  Ki: 0.6 nM
